From patent publication US20080175892A1, “Nanostructure-Drug Conjugates” (priority 2006, published 2008)

Experiment: Aggregation in aqueous solution by particle-size analyzer (light scattering)
Assay type: physicochemical
Settings: aqueous solution (10% DMSO), 4 and 0.04 μg/mL solutions
Description: Thus, the aggregation properties of 6 and paclitaxel were studied as a function of concentration in aqueous solution (10% DMSO) using a Brookhaven 90Plus submicrometer particle-size analyzer.

CC(=O)O[C@H]1C(=O)[C@@]2(C)[C@H]([C@H](OC(=O)c3ccccc3)[C@]3(O)C[C@H](OC(=O)[C@H](O)[C@@H](NC(=O)c4ccccc4)c4ccccc4)C(C)=C1C3(C)C)[C@]1(OC(C)=O)CO[C@@H]1C[C@@H]2O [paclitaxel, Paclitaxel]
light scattering (aggregation): did not show any scattering
